Patent publication US11052087B2, “Anti-HIV compounds” (priority 2018, dated 2021)
pEC50: −log10 of the molar value. Converted amounts (≈) assume the structure as drawn. Read-outs that look alike come from different tables or passages of the source.

Tests used:
[1] = system: HIV-1 (IIIB) in MT-4 cells; test: MT-4 HIV Assay; assay type: cell-based
Description: Compounds were tested in a high-throughput 384-well assay format for their ability to inhibit the replication of HIV-1 (IIIB) in MT-4 cells. Compounds were serially diluted (1:3) in DMSO on 384-well polypropylene plates and further diluted 200-fold into complete RPMI media (10% FBS, 1% P/S) using the Biotek Micro Flow and Agilent ECHO acoustic dispenser. Each plate contained up to 8 test compounds, with negative (No Drug Control) and 5 μM AZT positive controls. MT-4 cells were pre-infected with 10 μL of either RPMI (mock-infected) or a fresh 1:250 dilution of an HIV-1 (IIIB) concentrated virus stock. Infected and uninfected MT-4 cells were further diluted in complete RPMI media and added to each plate using a Micro Flow dispenser. After 5 days incubation in a humidified and temperature controlled incubator (37° C.), Cell Titer Glo (Promega) was added to the assay plates to quantify the amount of luciferase. EC50 values were defined as the compound concentration that causes a 50% decrease in luminescence signal, and were calculated using a sigmoidal dose-response model to generate curve fits.

[2] = Kinetic Solubility Analysis (CLND); assay type: physicochemical; settings: 26 °C, kinetic from dmso stock
Description: Kinetic Solubility Analysis (CLND) Buffer Preparation:
0.1N HCl: Hydrochloric acid, 0.1N standardized solution.
1×PBS, 7.4: Phosphate Buffered Saline solution 10×, PBS 50 mL was added to approximately 450 mL HPLC grade H2O. The volume of the solution was then adjusted to 500 mL for a total dilution factor of 1:10 and a final PBS concentration of IX.
Kinetic Solubility from DMSO Stocks:
The final DMSO concentration is 1.0% and maximum theoretical compound concentration is 100 μM (assuming stock concentration of 10 mM). The filter plate was sealed. […] The collection plate was sealed for analysis. Filtrates were injected into the nitrogen detector for quantification.
The equimolar nitrogen response of the detector was calibrated using standards which spanned the dynamic range of the instrument from […] nitrogen. The filtrates were quantified with respect to this calibration curve. The calculated solubility values were corrected for background nitrogen present in the DMSO and the media used to prepare the samples.

[3] = Liver microsomal stability (human); assay type: in vitro ADME; settings: human liver microsomes 0.5 mg/mL, 1 μM compound, NADPH-regenerating system, 37° C.
Description: (§1) Liver Microsomal Stability Protocol
(§2) Test compounds and one control compound (verapamil) were tested in 3 different species in duplicate sets.
(§3) Test compound concentration: 1 μM; Protein concentration: 0.5 mg/mL (for rat and human liver microsomes); Cofactor: NADPH-Regenerating system (NRS) solution. Time-points: 2, 12, 25, 45, and 65 minutes.
(§4) Reaction composition (in each incubation well) contains:
(§5) At an incubation temperature of 37° C., the reaction was started with addition of NADPH Regeneration System, at each time point, 25 μL of the reaction mixture was removed and added to a plate with 225 μL quenching solution (50% MeOH, 25% ACN, 25% H2O, and 200 nM labetalol as internal standard). After plates were vortexed, they were centrifuged for 30 minutes to remove proteins. About 100 μL supernatant was removed to a new plate and diluted with 150 μL water. About 20 μL of the mixture was injected into an LC/MS/MS system to monitor the compound's response. In vitro measured t1/2 was used to calculate Clint values.

[4] = Liver microsomal stability (rat); assay type: in vitro ADME; settings: rat liver microsomes 0.5 mg/mL, 1 μM compound, NADPH-regenerating system, 37° C.
Description: as §1, §2, §3, §4, §5

[5] = Human immunodeficiency virus 1, MT4, 120 h, HIV-1 (IIIB) replication in MT-4 cells, 5 days incubation, Cell Titer Glo, read-out: EC50
[6] = 0.1N HCl, pH 1, simulated gastric fluid, read-out: Solubility, HCl, pH 1.0, RT
[7] = PBS, pH 7.4, aqueous buffer, read-out: Solubility, PBS, pH 7.4, RT

SMILES	pEC50 [1, 5]	solubility at 24 h [2, 6] [µM]	solubility at 24 h [2, 7] [µM]	pEC50 ([1]; Human immunodeficiency virus 1, IIIB, MT4, 120 h)	Human Pred Cl. (L/H/kg) [3] [L/H/kg]	Rat. Pred. Cl. (L/H/kg) [4] [L/H/kg]
COC(=O)N[C@H](C(=O)N[C@@H](Cc1ccc(C#Cc2cnc(N3CC4CCC(C3)N4C3COC3)nc2)cc1)[C@H](CN(Cc1c(F)cc(-c2ccn(C(F)F)n2)cc1F)NC(=O)[C@@H](NC(=O)OC)C(C)(C)C(F)(F)F)OC(C)=O)C(C)(C)C(F)(F)F [Example 3, (5S,10S,11S,14S)-8-(4-(1-(difluoromethyl)-1H-pyrazol-3-yl)-2,6-difluorobenzyl)-11-(4-((2-(8-(oxetan-3-yl)-3,8-diazabicyclo[3.2.1]octan-3-yl)pyrimidin-5-yl)ethynyl)benzyl)-3,6,13,16-tetraoxo-5,14-bis(1,1,1-trifluoro-2-methylpropan-2-yl)-2,17-dioxa-4,7,8,12,15-pentaazaoctadecan-10-yl acetate]	6.22	25.2	< 1	–	–	–
COC(=O)N[C@H](C(=O)N[C@@H](Cc1ccc(C#Cc2cnc(N3CC4CCC(C3)N4C3COC3)nc2)cc1)[C@H](CN(Cc1c(F)cc(-c2ccn(C(F)F)n2)cc1F)NC(=O)[C@@H](NC(=O)OC)C(C)(C)C(F)(F)F)OC(=O)[C@H](C(C)C)N(C)C)C(C)(C)C(F)(F)F [Example 4, (2S,3S)-1-(1-(4-(1-(difluoromethyl)-1H-pyrazol-3-yl)-2,6-difluorobenzyl)-2-((S)-4,4,4-trifluoro-2-((methoxycarbonyl)amino)-3,3-dimethylbutanoyl)hydrazinyl)-4-(4-((2-(8-(oxetan-3-yl)-3,8-diazabicyclo[3.2.1]octan-3-yl)pyrimidin-5-yl)ethynyl)phenyl)-3-((S)-4,4,4-trifluoro-2-((methoxycarbonyl)amino)-3,3-dimethylbutanamido)butan-2-yl dimethyl-L-valinate]	5.24	99.2 (≈ 127 µg/mL)	< 1	–	–	–
COC(=O)N[C@H](C(=O)N[C@@H](Cc1ccc(C#Cc2cnc(N3CC4CCC(C3)N4C3COC3)nc2)cc1)[C@H](CN(Cc1c(F)cc(-c2ccn(C(F)F)n2)cc1F)NC(=O)[C@@H](NC(=O)OC)C(C)(C)C(F)(F)F)OC(=O)CCC[N+](C)(C)C)C(C)(C)C(F)(F)F [Example 7, (5S,10S)-8-(4-(1-(difluoromethyl)-1H-pyrazol-3-yl)-2,6-difluorobenzyl)-N,N,N-trimethyl-10-((1 S)-2-(4-((2-(8-(oxetan-3-yl)-3,8-diazabicyclo[3.2.1]octan-3-yl)pyrimidin-5-yl)ethynyl)phenyl)-1-((S)-4,4,4-trifluoro-2-((methoxycarbonyl)amino)-3,3-dimethylbutanamido)ethyl)-3,6,2-trioxo-5-(1,1,1-trifluoro-2-methylpropan-2-yl)-2,11-dioxa-4,7,8-triazapentadecan-15-aminium 2,2,2-trifluoroacetate]	–	–	–	6.61	–	–
COC(=O)N[C@H](C(=O)N[C@@H](Cc1ccc(C#Cc2cnc(N3CC4CCC(C3)N4C3COC3)nc2)cc1)[C@H](CN(Cc1c(F)cc(-c2ccn(C(F)F)n2)cc1F)NC(=O)[C@@H](NC(=O)OC)C(C)(C)C(F)(F)F)OC(=O)[C@@H](N)C(C)C)C(C)(C)C(F)(F)F [Example 8, (2S,3S)-1-(1-(4-(1-(difluoromethyl)-1H-pyrazol-3-yl)-2,6-difluorobenzyl)-2-((S)-4,4,4-trifluoro-2-((methoxycarbonyl)amino)-3,3-dimethylbutanoyl)hydrazinyl)-4-(4-((2-(8-(oxetan-3-yl)-3,8-diazabicyclo[3.2.1]octan-3-yl)pyrimidin-5-yl)ethynyl)phenyl)-3-((S)-4,4,4-trifluoro-2-((methoxycarbonyl)amino)-3,3-dimethylbutanamido)butan-2-yl L-valinate]	6.99	90 (≈ 113 µg/mL)	< 1	–	–	–
COC(=O)N[C@H](C(=O)N[C@@H](Cc1ccc(C#Cc2cnc(N3CC4CCC(C3)N4C3COC3)nc2)cc1)[C@H](CN(Cc1c(F)cc(-c2ccn(C(F)F)n2)cc1F)NC(=O)[C@@H](NC(=O)OC)C(C)(C)C(F)(F)F)OC(=O)[C@@H](N)CCCCN)C(C)(C)C(F)(F)F [Example 9, (2S,3S)-1-(1-(4-(1-(difluoromethyl)-1H-pyrazol-3-yl)-2,6-difluorobenzyl)-2-((S)-4,4,4-trifluoro-2-((methoxycarbonyl)amino)-3,3-dimethylbutanoyl)hydrazinyl)-4-(4-((2-(8-(oxetan-3-yl)-3,8-diazabicyclo[3.2.1]octan-3-yl)pyrimidin-5-yl)ethynyl)phenyl)-3-((S)-4,4,4-trifluoro-2-((methoxycarbonyl)amino)-3,3-dimethylbutanamido)butan-2-yl L-lysinate]	7.69	86.8 (≈ 111 µg/mL)	6.8 (≈ 8.73 µg/mL)	–	–	–
COC(=O)N[C@H](C(=O)N[C@@H](Cc1ccc(C#Cc2cnc(N3CC4CCC(C3)N4C3COC3)nc2)cc1)[C@H](CN(Cc1c(F)cc(-c2ccn(C(F)F)n2)cc1F)NC(=O)[C@@H](NC(=O)OC)C(C)(C)C(F)(F)F)OC(=O)CN(C)C)C(C)(C)C(F)(F)F [Example 10, (2S,3S)-1-(1-(4-(1-(difluoromethyl)-1H-pyrazol-3-yl)-2,6-difluorobenzyl)-2-((S)-4,4,4-trifluoro-2-((methoxycarbonyl)amino)-3,3-dimethylbutanoyl)hydrazinyl)-4-(4-((2-(8-(oxetan-3-yl)-3,8-diazabicyclo[3.2.1]octan-3-yl)pyrimidin-5-yl)ethynyl)phenyl)-3-((S)-4,4,4-trifluoro-2-((methoxycarbonyl)amino)-3,3-dimethylbutanamido)butan-2-yl dimethylglycinate]	–	79.3 (≈ 98.4 µg/mL)	< 1	–	–	–
COC(=O)N[C@H](C(=O)N[C@@H](Cc1ccc(C#Cc2cnc(N3CC4CCC(C3)N4C3COC3)nc2)cc1)[C@H](CN(Cc1c(F)cc(-c2ccn(C(F)F)n2)cc1F)NC(=O)[C@@H](NC(=O)OC)C(C)(C)C(F)(F)F)OP(=O)(O)O)C(C)(C)C(F)(F)F [Example 12, methyl ((5S,10S,11S,14S)-8-(4-(1-(difluoromethyl)-1H-pyrazol-3-yl)-2,6-difluorobenzyl)-16,16,16-trifluoro-15,15-dimethyl-11-(4-((2-(8-(oxetan-3-yl)-3,8-diazabicyclo[3.2.1]octan-3-yl)pyrimidin-5-yl)ethynyl)benzyl)-3,6,13-trioxo-10-(phosphonooxy)-5-(1,1,1-trifluoro-2-methylpropan-2-yl)-2-oxa-4,7,8,12-tetraazahexadecan-14-yl)carbamate]	–	13.1 (≈ 16.2 µg/mL)	84.6 (≈ 105 µg/mL)	–	0.47	0.91
COC(=O)N[C@H](C(=O)N[C@@H](Cc1ccc(C#Cc2ccc(N3CC4CCC(C3)N4C3COC3)nc2)cc1)[C@H](CN(Cc1c(F)cc(-c2ccn(C(F)F)n2)cc1F)NC(=O)[C@@H](NC(=O)OC)C(C)(C)C(F)(F)F)OC(=O)OCOP(=O)(O)O)C(C)(C)C(F)(F)F [Example 13, methyl ((5S,10S,11S,14S)-8-(4-(1-(difluoromethyl)-1H-pyrazol-3-yl)-2,6-difluorobenzyl)-16,16,16-trifluoro-15,15-dimethyl-11-(4-((6-(8-(oxetan-3-yl)-3,8-diazabicyclo[3.2.1]octan-3-yl)pyridin-3-yl)ethynyl)benzyl)-3,6,13-trioxo-10-((((phosphonooxy)methoxy)carbonyl)oxy)-5-(1,1,1-trifluoro-2-methylpropan-2-yl)-2-oxa-4,7,8,12-tetraazahexadecan-14-yl)carbamate]	–	67.4 (≈ 88.2 µg/mL)	< 1	–	–	–
